Laboratory results from ChEMBL document CHEMBL5726098, “Arylquinazolines” (2019).

Target: DNA-dependent protein kinase catalytic subunit (Homo sapiens, UniProt P78527)
Assay: DNA-PK Assay (Biochemical): The kinase assay was carried out in streptavidin-coated […] microtitre flashplates. […] The reaction was stopped using 50 μl/well of 200 mM EDTA. After incubation for a further 30 min at room temperature, the liquid was removed. Each well was washed three times with 100 μl of 0.9% saline solution. A nonspecific reaction (blank value) was determined using 10 μM of an innate kinase inhibitor. The radioactivity measurement was carried out using a TopCount. IC50 values were calculated in RS1.

Sequence of DNA-dependent protein kinase catalytic subunit (P78527 whole entry): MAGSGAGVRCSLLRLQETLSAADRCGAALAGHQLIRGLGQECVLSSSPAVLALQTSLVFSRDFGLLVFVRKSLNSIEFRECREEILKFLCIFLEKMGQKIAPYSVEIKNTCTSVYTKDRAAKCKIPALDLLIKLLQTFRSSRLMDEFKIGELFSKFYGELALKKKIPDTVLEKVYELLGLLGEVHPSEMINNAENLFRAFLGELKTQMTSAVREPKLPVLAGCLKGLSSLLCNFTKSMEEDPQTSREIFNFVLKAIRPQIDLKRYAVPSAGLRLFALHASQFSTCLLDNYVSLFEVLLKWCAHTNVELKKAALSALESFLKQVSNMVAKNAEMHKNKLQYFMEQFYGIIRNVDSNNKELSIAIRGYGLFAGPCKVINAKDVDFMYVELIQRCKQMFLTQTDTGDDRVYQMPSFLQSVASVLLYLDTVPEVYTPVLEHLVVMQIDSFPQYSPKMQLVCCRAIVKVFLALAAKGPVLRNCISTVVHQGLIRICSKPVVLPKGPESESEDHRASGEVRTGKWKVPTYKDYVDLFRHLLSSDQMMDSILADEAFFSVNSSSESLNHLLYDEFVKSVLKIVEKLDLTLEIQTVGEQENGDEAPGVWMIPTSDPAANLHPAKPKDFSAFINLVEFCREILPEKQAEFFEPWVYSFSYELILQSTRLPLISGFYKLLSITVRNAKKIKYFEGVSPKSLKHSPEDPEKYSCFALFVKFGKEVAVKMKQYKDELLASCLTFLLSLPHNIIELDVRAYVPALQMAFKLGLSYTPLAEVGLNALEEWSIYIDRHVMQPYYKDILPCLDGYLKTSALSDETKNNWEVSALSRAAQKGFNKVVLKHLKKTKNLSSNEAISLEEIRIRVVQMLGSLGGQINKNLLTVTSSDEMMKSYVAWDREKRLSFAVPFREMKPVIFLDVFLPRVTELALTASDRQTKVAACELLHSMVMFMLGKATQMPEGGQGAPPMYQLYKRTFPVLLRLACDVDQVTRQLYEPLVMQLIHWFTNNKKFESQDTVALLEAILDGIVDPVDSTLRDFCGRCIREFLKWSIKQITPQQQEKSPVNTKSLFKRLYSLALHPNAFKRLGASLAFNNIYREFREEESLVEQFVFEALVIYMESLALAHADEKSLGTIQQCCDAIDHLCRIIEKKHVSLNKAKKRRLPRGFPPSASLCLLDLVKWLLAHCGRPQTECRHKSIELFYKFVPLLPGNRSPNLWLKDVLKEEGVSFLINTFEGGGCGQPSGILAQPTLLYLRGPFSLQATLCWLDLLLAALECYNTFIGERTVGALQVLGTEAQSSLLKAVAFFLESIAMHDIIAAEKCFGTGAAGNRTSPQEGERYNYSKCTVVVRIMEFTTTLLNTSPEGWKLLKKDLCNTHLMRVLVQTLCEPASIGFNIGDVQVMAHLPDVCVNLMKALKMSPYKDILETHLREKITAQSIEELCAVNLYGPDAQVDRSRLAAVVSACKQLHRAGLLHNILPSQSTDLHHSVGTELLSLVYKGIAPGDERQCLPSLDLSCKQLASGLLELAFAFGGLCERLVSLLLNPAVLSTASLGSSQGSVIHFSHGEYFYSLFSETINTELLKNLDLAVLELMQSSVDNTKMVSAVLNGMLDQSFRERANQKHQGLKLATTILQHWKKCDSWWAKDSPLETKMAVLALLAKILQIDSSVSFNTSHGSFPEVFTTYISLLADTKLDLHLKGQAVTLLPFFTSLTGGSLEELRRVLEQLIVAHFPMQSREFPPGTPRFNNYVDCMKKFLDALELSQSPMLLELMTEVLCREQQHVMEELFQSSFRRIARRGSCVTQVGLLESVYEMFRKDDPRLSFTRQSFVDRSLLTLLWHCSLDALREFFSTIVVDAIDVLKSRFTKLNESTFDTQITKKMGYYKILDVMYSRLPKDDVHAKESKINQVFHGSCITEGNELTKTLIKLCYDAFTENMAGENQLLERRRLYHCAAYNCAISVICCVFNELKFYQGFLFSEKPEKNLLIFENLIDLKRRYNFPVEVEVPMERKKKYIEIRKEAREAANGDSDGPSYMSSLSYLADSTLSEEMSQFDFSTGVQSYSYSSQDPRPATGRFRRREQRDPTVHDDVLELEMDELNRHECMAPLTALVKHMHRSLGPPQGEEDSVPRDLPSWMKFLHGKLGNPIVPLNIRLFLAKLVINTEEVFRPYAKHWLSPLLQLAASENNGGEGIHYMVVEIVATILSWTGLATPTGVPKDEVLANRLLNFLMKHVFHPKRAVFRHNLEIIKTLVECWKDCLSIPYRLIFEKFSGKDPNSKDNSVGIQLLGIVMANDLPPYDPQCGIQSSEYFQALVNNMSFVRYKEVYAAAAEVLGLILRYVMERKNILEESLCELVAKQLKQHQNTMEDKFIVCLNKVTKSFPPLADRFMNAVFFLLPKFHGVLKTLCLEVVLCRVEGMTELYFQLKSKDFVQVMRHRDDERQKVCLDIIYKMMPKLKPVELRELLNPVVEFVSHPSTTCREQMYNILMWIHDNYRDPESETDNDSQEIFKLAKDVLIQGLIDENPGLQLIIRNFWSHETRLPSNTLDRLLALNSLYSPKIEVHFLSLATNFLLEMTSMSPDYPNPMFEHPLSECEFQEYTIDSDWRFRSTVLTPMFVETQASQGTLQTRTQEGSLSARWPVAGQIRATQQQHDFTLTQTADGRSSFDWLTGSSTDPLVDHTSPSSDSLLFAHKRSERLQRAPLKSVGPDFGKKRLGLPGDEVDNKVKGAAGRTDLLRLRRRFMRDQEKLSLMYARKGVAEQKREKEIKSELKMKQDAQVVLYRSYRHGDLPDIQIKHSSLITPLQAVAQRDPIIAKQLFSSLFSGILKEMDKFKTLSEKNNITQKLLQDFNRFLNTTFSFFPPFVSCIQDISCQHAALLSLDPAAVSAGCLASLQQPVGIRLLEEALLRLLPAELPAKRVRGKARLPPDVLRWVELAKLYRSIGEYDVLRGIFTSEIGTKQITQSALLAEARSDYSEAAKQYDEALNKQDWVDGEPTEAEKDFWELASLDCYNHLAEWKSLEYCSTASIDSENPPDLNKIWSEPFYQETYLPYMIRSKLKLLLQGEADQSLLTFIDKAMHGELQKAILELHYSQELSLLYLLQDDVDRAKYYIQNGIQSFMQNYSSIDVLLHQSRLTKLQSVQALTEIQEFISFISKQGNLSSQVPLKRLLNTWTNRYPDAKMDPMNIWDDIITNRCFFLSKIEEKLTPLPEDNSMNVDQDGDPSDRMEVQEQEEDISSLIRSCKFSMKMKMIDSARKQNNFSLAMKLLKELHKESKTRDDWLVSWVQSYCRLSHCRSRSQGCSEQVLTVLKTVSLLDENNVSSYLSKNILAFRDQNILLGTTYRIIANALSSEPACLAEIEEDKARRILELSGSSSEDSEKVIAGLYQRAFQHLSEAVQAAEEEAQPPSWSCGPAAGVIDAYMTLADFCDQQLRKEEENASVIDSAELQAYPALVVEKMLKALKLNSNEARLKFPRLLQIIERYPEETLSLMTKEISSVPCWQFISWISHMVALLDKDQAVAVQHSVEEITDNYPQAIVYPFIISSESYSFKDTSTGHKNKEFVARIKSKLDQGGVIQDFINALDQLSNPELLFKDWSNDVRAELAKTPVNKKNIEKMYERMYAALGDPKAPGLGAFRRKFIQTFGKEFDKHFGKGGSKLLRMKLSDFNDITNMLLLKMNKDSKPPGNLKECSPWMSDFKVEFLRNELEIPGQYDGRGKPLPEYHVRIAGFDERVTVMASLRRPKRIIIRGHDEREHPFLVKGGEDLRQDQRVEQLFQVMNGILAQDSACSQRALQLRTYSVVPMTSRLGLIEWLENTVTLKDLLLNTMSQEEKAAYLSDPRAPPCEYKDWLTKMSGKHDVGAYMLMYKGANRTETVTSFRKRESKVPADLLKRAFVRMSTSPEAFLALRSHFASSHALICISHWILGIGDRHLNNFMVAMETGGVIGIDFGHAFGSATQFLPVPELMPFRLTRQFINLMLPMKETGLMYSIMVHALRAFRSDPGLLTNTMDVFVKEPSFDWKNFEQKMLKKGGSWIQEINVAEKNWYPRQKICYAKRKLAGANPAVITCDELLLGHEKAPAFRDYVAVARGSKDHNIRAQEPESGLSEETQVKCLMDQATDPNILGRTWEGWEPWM

| SMILES | IC50 |
| --- | --- |
| NC(=O)C(c1cc(-c2ncnc3cc(N4CCOCC4)ccc23)c(F)cc1Cl)c1ncnn2cccc12 (configuration not stated) | > 30 nM |
| OCc1csc(C(O)c2cc(-c3ncnc4cc(N5C6CCC5COC6)ccc34)c(F)cc2Cl)n1 (configuration not stated) | > 30 nM |
